Data on 52 compounds can be found in PubChem BioAssay AID1996.

Each structure is given as a SMILES string. In brackets after ≈: the same amount, converted by molar mass.

For this data set the following is noted: buffer; pH 7.4; 200.0 µM.
As for `Cc1oc2c(CN3CCCC(C)C3)c(O)ccc2c(=O)c1-c1ccccc1` (configuration not stated), the solubility (kinetic) is > 54.5 µg/mL.

On to `CC(=O)N(CN1C(=O)CCC1=O)c1ccc(Cl)c(Cl)c1`, for which the kinetic solubility is > 47.3 µg/mL.

`O=C(CCCOc1ccc(Cl)cc1Cl)Nc1ncccn1` came in with a kinetic solubility of 7.7 µg/mL (≈ 23.6 µM).

In turn, `CC(Sc1nc(N)cc(=O)[nH]1)C(=O)Nc1nc2c(s1)CCCC2` (configuration not stated) showed a solubility (kinetic) of 8.7 µg/mL (≈ 24.8 µM).

Regarding `CC(Oc1cccnc1[N+](=O)[O-])C(=O)Nc1ccc(F)cc1` (configuration not stated), the kinetic solubility is > 45.8 µg/mL.

Compound `CN(c1ccccc1)S(=O)(=O)c1cccc2ccccc12` yielded a solubility (kinetic) of 2.2 µg/mL (≈ 7.4 µM).

Turning to `Cc1ccc(N2CC(C(=O)N3CCCCC3)CC2=O)cc1C` (configuration not stated), the solubility (kinetic) was > 45.1 µg/mL.

For the compound `CCOc1ccc(S(=O)(=O)/N=C(\N)c2ccccc2)cc1`, the kinetic solubility is > 45.7 µg/mL.

Consider `CCc1noc(C)c1C(=O)Nc1ccccc1N1CCOCC1`, for which the solubility (kinetic) is > 47.3 µg/mL.

Turning to `COc1cc(C)c(S(=O)(=O)NCCCn2ccnc2)cc1C`, the kinetic solubility stood at 39.6 µg/mL (≈ 122 µM).

Turning to `CC(C)c1cccc(C(C)C)c1NC(=S)Nc1cccc(Cl)c1`, the solubility (kinetic) was < 0.4 µg/mL.

As for `COc1cc(OC)c(OC)cc1CN1CCC(O)CC1.Cl`, the solubility (kinetic) was > 47.7 µg/mL.

Consider `COC(=O)c1ccc(C(=O)OC)c(NC(=S)N2CCN(C)CC2)c1`, for which the solubility (kinetic) was > 52.7 µg/mL.

For the compound `COc1ccc(C(=O)NCc2ccccn2)cc1[N+](=O)[O-]`, the solubility (kinetic) was > 43.1 µg/mL.

In turn, `CCN(CC(=O)NCc1cccs1)C(=O)c1ccc(-c2ccc(F)cc2)o1` returned a kinetic solubility of 51.8 µg/mL (≈ 134 µM).

In the case of `CCCN1C(=O)c2ccccc2NC1c1ccc(Cl)c(Cl)c1` (configuration not stated), the solubility (kinetic) was 11.9 µg/mL (≈ 35.5 µM).

On to `COc1ccc(NC(=O)CN(C)CC(=O)N(CC(C)C)c2c(N)n(CC(C)C)c(=O)[nH]c2=O)cc1`, for which the kinetic solubility was > 73.3 µg/mL.

For the compound `COC(=O)c1ccc(Nc2c([N+](=O)[O-])ccc3nonc23)cc1`, the solubility (kinetic) is < 0.2 µg/mL.

`CCOc1ccc2nc(SCC(=O)NCc3ccc(S(N)(=O)=O)cc3)[nH]c2c1` yielded a kinetic solubility of 35.2 µg/mL (≈ 83.7 µM).

`O=C(COC(=O)c1cccc(OC(F)F)c1)Nc1cccc(S(=O)(=O)N2CCCC2)c1` came in with a solubility (kinetic) of 10.9 µg/mL (≈ 24 µM).

As to `COc1ccc(CCNCC2CCCO2)cc1.Cl` (configuration not stated), the solubility (kinetic) was found to be 35.2 µg/mL.

Turning to `COc1ccc(C(=O)c2sc(Nc3ccccc3)nc2C)cc1`, the solubility (kinetic) turned out to be 3.4 µg/mL (≈ 10.5 µM).

Turning to `O=C(CC1CCCCC1)NCc1ccco1`, the kinetic solubility is > 33.2 µg/mL.

In turn, `OCCCNc1nc(-c2ccccc2)c2cc(Cl)ccc2n1` returned a solubility (kinetic) of 21.5 µg/mL (≈ 68.5 µM).

In the case of `O=C(NCc1ccc(Cl)cc1)N1CCN(Cc2ccccc2)CC1`, the solubility (kinetic) is > 51.6 µg/mL.

In turn, `Cn1c(N)c(C(=O)COC(=O)/C=C/c2ccc(Cl)cc2Cl)c(=O)n(C)c1=O` registered a kinetic solubility of 2.9 µg/mL (≈ 7.03 µM).

Consider `CC1CCc2c(sc3ncn(CCO)c(=O)c23)C1` (configuration not stated), for which the kinetic solubility is > 39.7 µg/mL.

`O=C(CCCN1CCC2(CC1)C(=O)NCN2c1ccccc1)c1ccc(F)cc1` returned a kinetic solubility of 50.1 µg/mL (≈ 127 µM).

With `CC(=O)c1ccc(NC(=O)COC(=O)Cn2cnc3ccccc32)cc1`, the kinetic solubility was > 52.7 µg/mL.

Regarding `COc1ccc(CC(=O)OCC(=O)Nc2ccc3c(c2)OCO3)cc1`, the kinetic solubility is > 51.5 µg/mL.

For `Cc1ccc(CC2SC(N)=NC2=O)cc1` (configuration not stated), the kinetic solubility is > 33 µg/mL.

For `CC(=O)Nc1nc2ccccc2n1Cc1ccccc1Cl`, the solubility (kinetic) was found to be 5.2 µg/mL (≈ 17.3 µM).

For `CC1(CCCN2C(=O)c3ccccc3C2=O)OCCO1`, the kinetic solubility is > 41.3 µg/mL.

As for `O=C(C1CCC1)N1CCN(c2ccccc2)CC1`, the solubility (kinetic) amounted to 35.6 µg/mL (≈ 146 µM).

`O=C(COC(=O)c1cccs1)NCc1cccs1` yielded a kinetic solubility of 40 µg/mL (≈ 142 µM).

`Cc1cc(SCC(=O)[O-])nc2ccccc12` had a kinetic solubility of 31 µg/mL.

For the compound `CC(=O)N1CCN=C1SCc1cccc(Cl)c1`, the kinetic solubility is > 40.3 µg/mL.

In turn, `CC1(C)CC(=O)C=C(Nc2cccc(Cl)c2Cl)C1` yielded a solubility (kinetic) of 37.3 µg/mL (≈ 131 µM).

Regarding `Cc1cc(C)c(-c2cc(C)nc3ncnn23)c(C)c1`, the solubility (kinetic) was > 37.8 µg/mL.

For the compound `Cc1cc(C)c2c3c(oc2n1)C(=O)N(c1cccc(Cl)c1)CC(=O)N3`, the solubility (kinetic) was found to be 0.7 µg/mL (≈ 1.97 µM).

With `O=c1cc(CO)oc(C(Nc2ccccn2)c2ccccc2Cl)c1O` (configuration not stated), the kinetic solubility was > 53.8 µg/mL.

In the case of `CCc1nonc1NC(=O)c1oc2ccc(C)cc2c1C`, the solubility (kinetic) is < 0.2 µg/mL.

Take `CC(NC(=O)COC(=O)C1CC2CCCC(C1)C2=O)c1ccccc1` (configuration not stated): the kinetic solubility is > 51.5 µg/mL.

In the case of `O=C(CCNS(=O)(=O)c1cccc(C(F)(F)F)c1)NCc1ccco1`, the kinetic solubility is > 56.5 µg/mL.

The compound `COc1ccc(NC(=O)C2CCCN(c3nc(C)cc(C)n3)C2)cc1` (configuration not stated) yielded a solubility (kinetic) of 1.4 µg/mL (≈ 4.11 µM).

With `CC(=O)NNc1cc(C)nc(N)n1`, the solubility (kinetic) was > 27.2 µg/mL.

In the case of `O=c1c(Cc2ccccc2)c(O)ccn1C1CCCCCCC1`, the kinetic solubility came to 1.5 µg/mL (≈ 4.82 µM).

`CC(=O)c1ccc(NC(=O)C(C)O/N=C(\N)c2ccccc2)cc1` (configuration not stated) displayed a kinetic solubility of 45.5 µg/mL (≈ 140 µM).

The compound `O=C(Nc1cccc([N+](=O)[O-])c1)Nc1cnccn1` yielded a kinetic solubility of 1.2 µg/mL (≈ 4.63 µM).

Consider `COc1ccc(CCNC(=O)COc2ccccc2[N+](=O)[O-])cc1OC`, for which the kinetic solubility was > 54.1 µg/mL.

Regarding `CCN(C(=O)COC(=O)c1cccnc1)c1cccc2ccccc12`, the solubility (kinetic) was > 50.2 µg/mL.

Compound `Clc1nssc1=Nc1ccccc1` registered a solubility (kinetic) of 22.3 µg/mL (≈ 97.5 µM).
